The target of one assay is (UniProt Z9ZW91H0F0). Nature of the assay: [3H]epibatidine radioligand competition SPA, Bt AChBP. In kind it is binding, Bolinus truncates. (Displacement assays read how much labelled ligand stays bound in the presence of the test substance.)
The target in assay [1] is T1, AChBP (Ac) (Aplysia californica, UniProt Q8WSF8). Nature of the assay: biochemical. The format is binding.
Assay [2] addresses T1, AChBP (Ac). Briefly: [3H]epibatidine radioligand competition SPA, Ac AChBP. In kind it is binding.
The target in a further assay is α-cobratoxin (Naja kaouthia, UniProt P01391). Details: species or system mice. The following applies: mouse, in vivo, iv.
α-cobratoxin, sequence (P01391 whole entry, looked up): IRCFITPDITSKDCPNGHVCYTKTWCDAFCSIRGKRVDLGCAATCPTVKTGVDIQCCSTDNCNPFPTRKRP
For assay [3], the target named is T2, AChBP (Ls) (Lymnaea stagnalis, UniProt P58154). In kind it is binding. The following applies: read-out: Kd, [125I]α-Bungarotoxin.
T2 sequence (P58154 20-229): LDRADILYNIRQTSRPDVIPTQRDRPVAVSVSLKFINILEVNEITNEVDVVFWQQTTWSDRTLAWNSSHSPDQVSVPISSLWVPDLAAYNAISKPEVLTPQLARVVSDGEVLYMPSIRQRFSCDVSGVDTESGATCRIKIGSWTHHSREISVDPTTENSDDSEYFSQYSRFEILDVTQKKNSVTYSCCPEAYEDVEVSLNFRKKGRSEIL
In assay [4] the target is T2, AChBP (Ls). In kind it is binding. The following applies: read-out: Kd, [3H]Epibatidine.

Like-named read-outs stand apart in the source and are kept apart here.

Usually Kd stands for the free concentration of one partner at which half of the binding sites on the other are occupied at equilibrium, for simple one-to-one binding.

(UniProt Z9ZW91H0F0), sequence (Z9ZW91H0F0 1-203): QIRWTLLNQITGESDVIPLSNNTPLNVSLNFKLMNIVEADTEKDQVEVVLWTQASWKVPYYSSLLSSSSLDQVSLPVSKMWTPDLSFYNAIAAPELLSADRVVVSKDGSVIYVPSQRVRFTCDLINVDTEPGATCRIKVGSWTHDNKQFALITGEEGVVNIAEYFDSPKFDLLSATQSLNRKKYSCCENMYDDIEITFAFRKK

As for `COc1cc2c3cc1Oc1cc(ccc1O)C[C@@H]1c4c(cc(OC)c(O)c4Oc4ccc(cc4)C[C@@H]3N(C)CC2)CC[N+]1(C)C` [NSC36387, d-tubocurarine, reference compound], binding at (UniProt Z9ZW91H0F0) was characterised by a dissociation constant (Kd) of 37.5 nM.

As to `c1ccc2c(CN3CCN(Cc4c[nH]c5ccccc45)CC3)c[nH]c2c1` [NSC42258], the figures for the Kd at AChBP (Ac) [1] and on AChBP (Ac) [2] were 2910 nM and 1150 nM, respectively. Besides, at α-cobratoxin, the “effect on survival time of mice (in words)” value is “can prolong the survival time”.

`COc1cc2c(cc1OC)C13CCN4CC5=CCOC(CC(=O)O)C(C5CC41)C3N2` (centres unmarked) [NSC121865]: the Kd was determined as 75.9 nM at AChBP (Ls) [3] and 112 nM on AChBP (Ls) [4].

On to `N#Cc1ccc(/C=C/C(=O)O)cc1` [NSC134754], for which the results for the Kd on AChBP (Ls) [3] and on AChBP (Ls) [4] were 404 nM and 793 nM, respectively.

Values taken from article PMC3191909 (Journal of biomolecular screening, 2009).
